This passage reports HDAC1/6 and IC50 results from patent publication US20230250054A1, “SELECTIVE HISTONE DEACETYLASE 6 INHIBITORS” (The Board of Trustees of the University of Illinois, priority 2020, published 2023).

Broadly, the IC50 is the concentration that gives 50% inhibition.

A value given as a limit tells only on which side of the number the result lay.

Experiment [1] concerns the target T1, HDAC1 (Homo sapiens, UniProt Q13547).
T1 construct: made in house; host or cells: HEK293/T17 cells, transient transfection
The experiment is described as follows: Fluorescence-based HDAC inhibition assay, HDAC1. The class given is biochemical. The following applies: ratio HDAC1 IC50 / HDAC6 IC50, Table 2. As for the experimental part:
(§1) Briefly, transiently transfected cells were harvested three days post-transfection and the cell pellets resuspended in a lysis buffer (50 mM Tris, 150 mM NaCl, 10 mM KCl, 2 mM MgCl2, 10% glycerol, 0.2% NP-40, 2 Units/mL benzonase, pH 8) supplemented with a cocktail of protease inhibitors (Roche, Basel, Switzerland). Cells were lysed by sonication (30 W; 3×20 s) on ice, and the cell lysate cleared by centrifugation at 40 000×g for 30 min at 4° C. […] Purified proteins were concentrated to 1 mg/mL, aliquoted, flash-frozen in liquid nitrogen, and stored at −80° C. until further use.
(§2) Briefly, individual HDACs were preincubated with dilution series of tested inhibitors (0-100 μM) in a 384-well plate in the total volume of 40 μL for 10 min at 37° C. in a reaction buffer comprising 50 mM HEPES, 140 mM NaCl, 10 mM KCl, 1 mM TCEP, 0.1% BSA, pH 7.4. Deacetylation reaction was started by the addition of 10 μL of a 10 μM substrate into the HDAC/inhibitor mixture. Following the 30 min incubation at 37° C., the reaction was terminated by the addition of 25 μL of the trypsin solution (4 mg/mL). Fluorescence development by trypsin was carried out at 37° C. for 15 and 60 min for Ac-GAK(Ac)-AMC and Boc-Lys(TFA)-AMC substrate, respectively. […] Non-linear regression analysis was employed to calculate IC50 values using the GraphPad Prism software. […] Reactions without the enzyme or the inhibitor were used to define 0% and 100% of the HDAC activity, respectively.

Experiment [2] concerns the target T2, HDAC6 (Homo sapiens, UniProt Q9UBN7).
T2 construct: our assay that uses approximately 0.6 nM concentration of the full-length enzyme; made in house; host or cells: HEK293/T17 cells, transient transfection
T2 sequence (Q9UBN7 1-1215): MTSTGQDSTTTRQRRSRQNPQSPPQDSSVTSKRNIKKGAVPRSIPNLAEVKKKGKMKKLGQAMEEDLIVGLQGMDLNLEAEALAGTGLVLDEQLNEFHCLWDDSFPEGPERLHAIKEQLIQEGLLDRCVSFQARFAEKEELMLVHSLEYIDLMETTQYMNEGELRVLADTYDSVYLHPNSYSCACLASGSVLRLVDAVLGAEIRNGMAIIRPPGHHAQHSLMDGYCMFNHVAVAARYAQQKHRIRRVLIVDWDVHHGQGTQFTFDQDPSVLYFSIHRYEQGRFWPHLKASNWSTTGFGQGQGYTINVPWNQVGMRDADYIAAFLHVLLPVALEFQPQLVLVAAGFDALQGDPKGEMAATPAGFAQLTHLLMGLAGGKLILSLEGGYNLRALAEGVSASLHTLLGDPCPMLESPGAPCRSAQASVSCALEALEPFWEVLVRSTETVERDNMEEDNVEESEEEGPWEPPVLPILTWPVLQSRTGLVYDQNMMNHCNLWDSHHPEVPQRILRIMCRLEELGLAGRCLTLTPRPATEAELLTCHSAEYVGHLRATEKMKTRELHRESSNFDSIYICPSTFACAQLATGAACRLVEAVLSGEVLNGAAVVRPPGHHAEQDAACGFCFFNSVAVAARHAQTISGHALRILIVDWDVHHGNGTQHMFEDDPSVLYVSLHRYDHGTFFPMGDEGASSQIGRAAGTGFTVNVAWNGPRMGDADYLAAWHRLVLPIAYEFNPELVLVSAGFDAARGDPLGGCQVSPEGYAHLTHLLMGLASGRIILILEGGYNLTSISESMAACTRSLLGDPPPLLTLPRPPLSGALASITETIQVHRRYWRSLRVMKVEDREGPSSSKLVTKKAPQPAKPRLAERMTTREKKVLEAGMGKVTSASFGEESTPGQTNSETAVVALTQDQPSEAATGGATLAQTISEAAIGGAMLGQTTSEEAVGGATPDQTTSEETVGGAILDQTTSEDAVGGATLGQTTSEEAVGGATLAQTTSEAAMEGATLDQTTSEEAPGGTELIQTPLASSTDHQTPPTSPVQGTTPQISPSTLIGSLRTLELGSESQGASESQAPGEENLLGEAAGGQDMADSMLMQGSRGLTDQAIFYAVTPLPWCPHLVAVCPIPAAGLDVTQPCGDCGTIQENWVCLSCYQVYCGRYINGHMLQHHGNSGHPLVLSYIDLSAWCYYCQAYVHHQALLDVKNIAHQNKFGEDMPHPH
The experiment can be described thus: Fluorescence-based HDAC inhibition assay, HDAC6. It counts as biochemical. The following applies: Table 2. The procedure:
as §1, §2

T1 sequence (Q13547 whole entry): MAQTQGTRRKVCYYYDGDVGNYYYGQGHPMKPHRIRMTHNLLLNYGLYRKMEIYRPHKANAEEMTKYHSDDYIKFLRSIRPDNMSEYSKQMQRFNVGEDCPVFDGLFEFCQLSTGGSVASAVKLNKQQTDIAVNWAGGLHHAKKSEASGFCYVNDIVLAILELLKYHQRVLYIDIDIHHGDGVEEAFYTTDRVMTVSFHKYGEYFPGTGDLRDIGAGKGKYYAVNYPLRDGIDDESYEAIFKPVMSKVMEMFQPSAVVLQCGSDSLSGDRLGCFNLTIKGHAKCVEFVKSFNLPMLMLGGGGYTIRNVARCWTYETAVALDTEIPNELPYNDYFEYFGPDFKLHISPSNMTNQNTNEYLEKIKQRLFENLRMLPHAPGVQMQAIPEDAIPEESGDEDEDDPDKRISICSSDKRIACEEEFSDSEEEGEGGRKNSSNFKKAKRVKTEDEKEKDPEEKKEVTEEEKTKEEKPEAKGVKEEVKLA

Take `O=C(CCCCCCC(=O)Nc1ccccc1)NO` [Vorinostat, reference compound]: in experiment [1], the HDAC1/6 amounted to 5.

In experiment [2], `NCc1ccc(NC(=O)N(CCCCO)Cc2ccc(C(=O)O)cc2)cc1` [Compound 6d, 4-((3-(4-(Aminomethyl)phenyl)-1-(4-hydroxybutyl)ureido)methyl)benzoic acid] displayed a concentration for half-maximal inhibition (IC50) of 16.8 µM.

With `NCc1ccc(NC(=O)N(CCCCO)Cc2ccc(C(N)=O)cc2)cc1` [Compound 6e, 4-((3-(4-(Aminomethyl)phenyl)-1-(4-hydroxybutyl)ureido)methyl)benzamide], in experiment [2], the IC50 was more than 30 µM.

On to `NCc1ccc(NC(=O)N(CCCCO)Cc2ccc(B(O)O)cc2)cc1` [Compound 6f, (4-((3-(4-(Aminomethyl)phenyl)-1-(4-hydroxybutyl)ureido)methyl)phenyl)boronic acid], for which the IC50 in experiment [2] is more than 30 µM.
